# In patent US20250073215A1 (priority 2023, published 2025):
# How the values were obtained:
# BEAS-2B cells = conditions: cited from earlier work
# [1] = test system: human bronchial epithelial cells (BEAS-2B cells); conditions: in vitro; cited from earlier work
# cholinergic receptor = conditions: when interacting with the cholinergic receptor ligand; cited from earlier work
# [2] = cited from earlier work
Compound,effect on CRP expression compared with nicotine (BEAS-2B cells; BEAS-2B cells),"effect on tumour development and metastasis compared with nicotine (BEAS-2B cells; NF-κB p65, EGFR, MET by immunoblotting and real-time PCR)","cancer-related proteins (CRPs) with differential expression compared with control group (BEAS-2B cells; transcriptome sequencing, BEAS-2B cells)",sensitivity of BEAS-2B cells (cytotoxicity) compared with nicotine [1],"satisfaction of nicotine craving compared with previously used nicotine products (100 individuals, twice a day for 60 days, participants' opinion)",addictiveness (conclusion of the study),antinociceptive effects (cholinergic receptor),lethal dose for humans [2] [mg]
Cc1ccc([C@@H]2CCCN2C)cn1 [(S)-2-Methyl-5-(1-methyl-2-pyrrolidinyl)pyridine],greater negative effect on CRP expression than nicotine,greater negative effect on tumour development and metastasis than nicotine,1208,more sensitive,faster,not addictive,displays antinociceptive effects,–
"CN1CCC[C@H]1c1cccnc1 [Nicotine, 3-[(2S)-1-methyl-2-pyrrolidinyl]pyridine]",–,–,–,–,–,–,–,50 to 100
